Experimental data taken from PMC11411213 (Journal of Molecular Cell Biology, 2024).

Tests used:
[1] = system: intracellular ROS levels in Calu-3 cells; format: cell-based, human
in vitro = settings: human
SARS-CoV-2 Delta strain = settings: mouse, in vivo
[2] = system: pseudotyped vesicular stomatitis virus (VSV) that contains SARS-CoV-2 Spike protein; format: cell-based

Compound	CC50 (Calu-3 cells) [µM]	cytotoxic activity (in words) (Calu-3 cells)	intracellular ROS levels after 24 h treatment [1]	CC50 (in vitro) [µM]	other results
MKI-1	0.892 ± 0.001	cytotoxic in the high nanomolar range			
imidazole ketone erastin [IKE]	9.29 ± 0.324		reduced the basal ROS level		intracellular ROS levels after SARS-CoV-2 infection with 24 h pretreatment [1]: prevented virus-induced ROS bursts; intracellular ROS levels over time after administration [1]: biphasic trend, with an initial increase at early time points (0–6 h) followed by a substantial decrease at a later time point (24 h)
N[C@@H](CCC(=O)N[C@@H](CS)C(=O)NCC(=O)O)C(=O)O [GSH, glutathione]			reduced ROS levels		
COc1cc(Nc2ncc(F)c(Nc3ccc4c(n3)NC(=O)C(C)(C)O4)n2)cc(OC)c1OC [Tamatinib]		cytotoxic in the micromolar range		5.74 ± 0.354	
COc1cc2c(Nc3ccc(Br)cc3F)ncnc2cc1OCC1CCN(C)CC1 [Vandetanib]		cytotoxic in the micromolar range		3.76 ± 0.132	
O=C(O)c1cc(/N=N/c2ccc(S(=O)(=O)Nc3ccccn3)cc2)ccc1O [Sulfasalazine]		no cytotoxicity at any of the tested concentrations		> 500	
N-acetyl cysteine [NAC]	> 5000		reduced ROS levels		IHC analysis of the N protein in the lungs (SARS-CoV-2 Delta strain): confirmed by immunohistochemistry; levels of viral transcripts N and RdRp in lungs (qPCR) (SARS-CoV-2 Delta strain): significantly lower levels of viral transcripts than untreated mice; effect on SARS-CoV-2 entry (Spike pseudovirus luciferase) [2]: did not observe any effect
